Format in all cases: in vivo
For assay [1], the system named is Rhipicephalus microplus. As to the kind of experiment: Rhipicephalus (Boophilus) microplus injection test (BOOPMI Inj). Particulars: 168 h, injection into adult engorged female ticks, egg deposition after 7 days, read-out: activity (efficacy: 100% means all eggs are infertile); for pest or weed control at 0.004 mg: application rate 4 μg/tick; for pest or weed control at 0.02 mg: application rate 20 μg/tick. Here is the method:
Rhipicephalus (Boophilus) Microplus—Injection Test (BOOPMI Inj)
Solvent: dimethyl sulfoxide
To produce a suitable preparation of active compound, 10 mg of active compound are dissolved in 0.5 mL solvent, and the concentrate is diluted with solvent to the desired concentration.
Five adult engorged female ticks (Rhipicephalus microplus) are injected with 1 μL compound solution into the abdomen. The ticks are transferred into replica plates and incubated in a climate chamber.
After 7 days egg deposition of fertile eggs is monitored. Eggs where fertility is not visible are stored in a climate chamber till hatching after about 42 days. An efficacy of 100% means all eggs are infertile; 0% means all eggs are fertile.

Assay [2] concerns Diabrotica balteata. As to the kind of experiment: Diabrotica balteata spray test. The settings on record: 168 h, wheat seeds, larvae, after 7 days, read-out: activity (efficacy: 100% means all seedlings have grown up like in the untreated, uninfected control); for pest or weed control at 32 µg/disc, 100 g/ha: application rate 100 g/ha (=32 μg/well); for pest or weed control at 160 µg/disc, 500 g/ha: application rate 500 g/ha (=160 μg/well). Here is the method: Diabrotica balteata—Spray Test Solvent: 78.0 parts by weight of acetone • • 1.5 parts by weight of dimethylformamide Emulsifier: alkylarylpolyglycol ether
To produce a suitable preparation of active compound, 1 part by weight of active compound is mixed with the stated amount of solvent, and the concentrate is diluted with water, containing an emulsifier concentration of 1000 ppm, to the desired concentration. Further test concentrations are prepared by dilution with emulsifier containing water.
Soaked wheat seeds (Triticum aestivum) are placed in a multiple well plate filled with agar and some water and are incubated for 1 day to germinate (5 seeds per well). The germinated wheat seeds are sprayed with a test solution containing the desired concentration of the active ingredient. Afterwards each unit is infected with 10-20 larvae of the banded cucumber beetle (Diabrotica balteata).
After 7 days efficacy in % is determined. 100% means all the seedlings have grown up like in the untreated, uninfected control; 0% means none of the seedlings have grown.

Assay [3] relates to Spodoptera frugiperda. As to the kind of experiment: Spodoptera frugiperda spray test. Particulars: in Zea mays, 168 h, read-out: activity (mortality). Here is the method:
Spodoptera Fruaiperda—Spray Test
Solvent: 78.0 parts by weight acetone • 1.5 parts by weight dimethylformamide Emulsifier: alkylarylpolyglycol ether
To produce a suitable preparation of active compound, 1 part by weight of active compound is mixed with the stated amount of solvents and is diluted with water, containing an emulsifier concentration of 1000 ppm, to the desired concentration. Further test concentrations are prepared by dilution with emulsifier containing water.
Maize (Zea mays) leaf sections are sprayed with a preparation of the active ingredient of the desired concentration. Once dry, the leaf sections are infested with fall armyworm larvae (Spodoptera frugiperda).
After 7 days mortality in % is determined. 100% means all caterpillars have been killed and 0% means none of the caterpillars have been killed.

The test system of assay [4] is Rhipicephalus microplus. Description: Rhipicephalus (Boophilus) microplus in-vitro contact test, larval cattle tick, strain Parkhurst (BOOPMI Cont). Particulars: application rate 5 μg/cm^2 (=500 g/ha), tick larvae, after 48 hours, read-out: activity (efficacy: 100% means all larvae are dead or moribund). On the procedure:
Rhipicephalus (Boophilus) Microplus—In-Vitro Contact Tests Larval Cattle Tick (Strain Parkhurst, Resistant Against Synthetic Pyrethroids) (BOOPMI Cont)
9 mg compound is solved in 1 mL acetone and diluted with acetone to the desired concentration. 250 μL of the test solution is filled in 25 mL glass test tubes and homogeneously distributed on the inner walls by rotation and tilting on a shaking device (2 h at 30 rpm). With a compound concentration of 900 ppm, an inner surface of 44.7 cm^2 and a homogeneous distribution, a dose of 5 μg/cm^2 is achieved.
After the solvent has evaporated, each test tube is filled with 20-50 cattle tick larvae (Rhipicephalus microplus), closed with a perforated lid and incubated in a horizontal position at 85% relative humidity and 27° C. in an incubator. After 48 hours efficacy is determined. The larvae are patted on the ground of the tubes and negative geotactic behavior is recorded.
An efficacy of 100% means all larvae are dead or moribund; 0% means no larvae are dead or moribund.

The structures appear in SMILES notation.

As usually defined, the mortality is the percentage killed. For the compound `CC(NC(=O)c1cc(C(F)(F)F)cc(C(F)(F)F)c1)c1nc(Cl)nn1-c1ccc(C#N)cn1` (racemic) [I-39, 3,5-di(trifluoromethyl)-N-{1-[3-chloro-1-(3-cyano-pyridin-6-yl)-1H-1,2,4-triazol-5-yl]ethyl}-benzamide], in assay [1], the pest or weed control at 0.004 mg was 100% and the pest or weed control at 0.02 mg was 100%. In addition, in assay [2], the pest or weed control at 32 µg/disc, 100 g/ha is 100%. Moreover, the mortality at 100 g/ha in assay [3] was determined as 100%. Moreover, the pest or weed control at 5 µg/cm2 in assay [4] is 100%.

As to `CC(C)Oc1nc([C@H](C)NC(=O)c2cc(Cl)cc(C(F)(F)F)c2)n(-c2ccc(C#N)cn2)n1` [I-16], in assay [1], the pest or weed control at 0.004 mg was 100% and the pest or weed control at 0.02 mg was 100%. Also, the pest or weed control at 160 µg/disc, 500 g/ha in assay [2] came out at 100%. The mortality at 500 g/ha in assay [3] worked out at 100%. For the same compound, in assay [4], the pest or weed control at 5 µg/cm2 is 100%.

`CC(C)Oc1nc([C@H](C)NC(=O)c2cc(C(F)(F)F)cc(C(F)(F)F)c2)n(-c2ccc(C#N)cn2)n1` [I-17]: in assay [1], the pest or weed control at 0.004 mg was found to be 100% and the pest or weed control at 0.02 mg came out at 100%. Further, in assay [2], the pest or weed control at 32 µg/disc, 100 g/ha is 100% and the pest or weed control at 160 µg/disc, 500 g/ha amounted to 100%. In addition, in assay [3], the mortality at 100 g/ha is 100% and the mortality at 500 g/ha was determined as 100%. Also, the pest or weed control at 5 µg/cm2 in assay [4] was 100%.

Turning to `CC(C)Oc1nc([C@H](C)NC(=O)c2cc(Cl)cc(Cl)c2)n(-c2ccc(C#N)cn2)n1` [I-18], the pest or weed control at 0.02 mg in assay [1] came to 100%. The pest or weed control at 160 µg/disc, 500 g/ha in assay [2] turned out to be 100%. Moreover, the mortality at 500 g/ha in assay [3] came to 83%. In addition, the pest or weed control at 5 µg/cm2 in assay [4] came out at 90%.

Turning to `CC(C)c1nc([C@H](C)NC(=O)c2cccc(C(F)(F)F)n2)n(-c2ccc(C#N)cn2)n1` [I-22], in assay [1], the pest or weed control at 0.004 mg was found to be 80% and the pest or weed control at 0.02 mg came to 100%. The pest or weed control at 32 µg/disc, 100 g/ha in assay [2] came out at 100%.

Consider `C[C@H](NC(=O)c1cc(Cl)cc(SC(F)(F)F)c1)c1nc(C2CC2)nn1-c1ccc(C#N)cn1` [I-45], for which the pest or weed control at 0.004 mg in assay [1] is 100%. For the same compound, the pest or weed control at 32 µg/disc, 100 g/ha in assay [2] was 100%. In addition, the mortality at 100 g/ha in assay [3] is 100%. Further, in assay [4], the pest or weed control at 5 µg/cm2 was 100%.

For the compound `CC(NC(=O)c1cc(Cl)cc(C(F)(F)F)c1)c1nc(Br)nn1-c1ccc(C#N)cn1` (stereo not shown) [I-49], the pest or weed control at 32 µg/disc, 100 g/ha in assay [2] is 100%. Besides, in assay [3], the mortality at 100 g/ha was 100%. Moreover, in assay [4], the pest or weed control at 5 µg/cm2 was found to be 100%.

As to `CC(NC(=O)c1cc(Cl)nc(C(F)(F)F)c1)c1nc(Cl)nn1-c1ccc(C#N)cn1` (stereo not shown) [I-52], in assay [2], the pest or weed control at 32 µg/disc, 100 g/ha is 100%. The mortality at 100 g/ha in assay [3] was 100%. Moreover, the pest or weed control at 5 µg/cm2 in assay [4] amounted to 100%.

Turning to `CC(NC(=O)c1cc(Br)cc(Br)c1)c1nc(Br)nn1-c1ccc(C#N)cn1` (stereo not shown) [I-53], the pest or weed control at 32 µg/disc, 100 g/ha in assay [2] is 100%. Besides, the mortality at 100 g/ha in assay [3] came out at 100%. Moreover, in assay [4], the pest or weed control at 5 µg/cm2 turned out to be 100%.

Take `CC(NC(=O)c1cc(Br)cc(Br)c1)c1nc(Cl)nn1-c1ccc(C#N)cn1` (stereo not shown) [I-54]: in assay [3], the mortality at 100 g/ha stood at 100%. Also, the pest or weed control at 5 µg/cm2 in assay [4] came to 100%.

For the compound `CC(NC(=O)c1cc(Br)cc(OC(F)(F)F)c1)c1nc(Cl)nn1-c1ccc(C#N)cn1` (stereo not shown) [I-55], the pest or weed control at 32 µg/disc, 100 g/ha in assay [2] is 100%. Besides, in assay [3], the mortality at 100 g/ha was 100%. For the same compound, the pest or weed control at 5 µg/cm2 in assay [4] was determined as 80%.

`CC(NC(=O)c1cc(Br)cc(OC(F)(F)F)c1)c1nc(Br)nn1-c1ccc(C#N)cn1` (stereo not shown) [I-56]: the pest or weed control at 32 µg/disc, 100 g/ha in assay [2] came to 100%. For the same compound, the mortality at 100 g/ha in assay [3] came out at 100%. Further, the pest or weed control at 5 µg/cm2 in assay [4] is 100%.

Turning to `CC(NC(=O)c1cc(Cl)cc(C(F)(F)F)c1)c1nc(Cl)nn1-c1ccc(C#N)cn1` (stereo not shown) [I-57], in assay [2], the pest or weed control at 32 µg/disc, 100 g/ha was determined as 100%. In addition, the mortality at 100 g/ha in assay [3] was 100%. In assay [4], the pest or weed control at 5 µg/cm2 was 100%.

In the case of `CC(NC(=O)c1cc(Cl)cc(Cl)c1)c1nc(Cl)nn1-c1ccc(C#N)cn1` (stereo not shown) [I-58], the mortality at 100 g/ha in assay [3] turned out to be 83%. In addition, the pest or weed control at 5 µg/cm2 in assay [4] was determined as 100%.

With `CC(NC(=O)c1cncc(C(F)(F)F)c1)c1nc(Cl)nn1-c1ccc(C#N)cn1` (stereo not shown) [I-59], the pest or weed control at 0.004 mg in assay [1] came out at 80%. In assay [3], the mortality at 100 g/ha was 100%. Also, in assay [4], the pest or weed control at 5 µg/cm2 came to 100%.

Consider `CC(NC(=O)c1cc(Cl)cc(OC(F)(F)F)c1)c1nc(Cl)nn1-c1ccc(C#N)cn1` (stereo not shown) [I-60], for which the pest or weed control at 32 µg/disc, 100 g/ha in assay [2] stood at 100%. In addition, in assay [3], the mortality at 100 g/ha is 83%. Also, the pest or weed control at 5 µg/cm2 in assay [4] is 100%.

In the case of `COc1nc([C@H](C)NC(=O)c2cc(F)cc(C#N)c2)n(-c2ccc(C#N)cn2)n1` [I-62], the pest or weed control at 0.004 mg in assay [1] stood at 100%. Besides, the pest or weed control at 32 µg/disc, 100 g/ha in assay [2] amounted to 100%. In assay [4], the pest or weed control at 5 µg/cm2 amounted to 90%.

`Cc1nc([C@H](C)NC(=O)c2cc(Br)cc(C(F)(F)F)n2)n(-c2ccc(C#N)cn2)n1` [II-55]: in assay [1], the pest or weed control at 0.004 mg is 100% and the pest or weed control at 0.02 mg amounted to 100%. Further, in assay [4], the pest or weed control at 5 µg/cm2 amounted to 100%.

In the case of `Cc1nc([C@H](C)NC(=O)c2ccc(Cl)cn2)n(-c2ccc(C#N)cn2)n1` [II-56], in assay [1], the pest or weed control at 0.004 mg was 80% and the pest or weed control at 0.02 mg worked out at 100%. Further, in assay [4], the pest or weed control at 5 µg/cm2 worked out at 80%.

With `C[C@H](NC(=O)c1cc(Br)cc(C(F)(F)F)n1)c1ncnn1-c1ccc(C#N)cn1` [II-58], in assay [1], the pest or weed control at 0.02 mg was found to be 0%.

On to `C[C@H](NC(=O)c1cc(Cl)cc(C(F)(F)C(F)(F)F)c1)c1ncnn1-c1nccs1` [II-66], for which, in assay [1], the pest or weed control at 0.004 mg was 100% and the pest or weed control at 0.02 mg came out at 100%. In addition, in assay [2], the pest or weed control at 32 µg/disc, 100 g/ha was 100% and the pest or weed control at 160 µg/disc, 500 g/ha stood at 100%. The mortality at 500 g/ha in assay [3] worked out at 100%. In assay [4], the pest or weed control at 5 µg/cm2 is 100%.

For the compound `C[C@H](NC(=O)c1cc(Cl)cc(C(F)(F)C(F)(F)F)c1)c1ncnn1-c1ncc(Br)s1` [II-67], in assay [1], the pest or weed control at 0.004 mg stood at 100% and the pest or weed control at 0.02 mg was 100%. The pest or weed control at 160 µg/disc, 500 g/ha in assay [2] is 100%. In addition, the mortality at 500 g/ha in assay [3] is 100%. Besides, the pest or weed control at 5 µg/cm2 in assay [4] amounted to 100%.

For `C[C@H](NC(=O)c1cc(Br)cc(Br)c1)c1ncnn1-c1ccc(C#N)cn1` [II- 13], the pest or weed control at 160 µg/disc, 500 g/ha in assay [2] came to 100%.

`C[C@H](NC(=O)c1cc(Cl)cc(OC(F)(F)F)c1)c1ncnn1-c1cc(NC(=O)c2ccc(F)cc2)ccn1` [II- 20]: the mortality at 500 g/ha in assay [3] was 100%.
